From patent US20250154219A1, “PEPTIDE ANALOGS” (Adepthera LLC, priority 2017, published 2025)

What was measured:
Format in all cases: cell-based
[1] = target: T1, CLR/RAMP1 receptor (Homo sapiens, UniProt O60894+Q16602); assay: CLR/RAMP1 cAMP receptor-activation assay (agonist mode); details: for CLR/RAMP1 Max Activity % of positive control: agonist mode, positive control β-CGRP;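 as to all read-outs here: Dose–response over 10 threefold dilutions from 1.0 µM, run in duplicate, luminescent cAMP detection (RLU), activity scaled between vehicle control (0%) and maximal control (100%)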
Experimental: (§1) Using a receptor activation assay, the dose-dependent stimulatory response of peptide agonists on a CLR/RAMP1 receptor, a CLR/RAMP2, or a CLR/RAMP3 receptor complex was determined. A cell line carrying the recombinant CLR/RAMP1, CLR/RAMP2, or a CLR/RAMP3 receptor was employed in the assay. Peptide agonist activities were tested, in duplicate, at 10 different concentrations, starting with 1.0 μM and serially diluted 3-fold, in DMSO. […] The CLR/RAMP1 CAMP, CLR/RAMP2 arrestin, and CLR/RAMP3 CAMP assays (DiscoveRx, Fremont, Calif.) were used.
(§2) The pharmacology of superagonistic activity of synthetic analogs was studied in cells that stably express CLR/RAMP1 (1321N1 cells), CLR/RAMP2 (CHO-K1 cells), or CLR/RAMP3 (CHO-K1 cells) receptors.
For the analysis of Gs-coupled CAMP production, cAMP Hunter cell lines were expanded from freezer stocks, and cells were seeded in a total volume of 20 μL into white walled, 384-well microplates and incubated at 37 C for the appropriate time prior to testing. The CAMP modulation was determined using the DiscoverX HitHunter CAMP XS+ assay. For agonistic activity determination, cells were incubated with sample to induce response. Media was aspirated from cells and replaced with 15 μL 2:1 HBSS/10 mM Hepes: CAMP XS+Ab reagent. […] For Gs-coupled agonistic assays, percentage activity is calculated using the following formula: % Activity=100%×(mean RLU of test sample−mean RLU of vehicle control)/(mean RLU of MAX control−mean RLU of vehicle control).

[2] = target: T2, CLR/RAMP2 receptor (Homo sapiens, UniProt O60895+Q16602); assay: CLR/RAMP2 arrestin receptor-activation assay (agonist mode); details: for CLR/RAMP2 Max Activity % of positive control: agonist mode, positive control ADM; for receptor selectivity of agonists, in words: CLR/RAMP2 versus CLR/RAMP1;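 as to all read-outs here: agonist dose-response in recombinant cell lines stably expressing each receptor complex, duplicate wells over 10 threefold dilutions from a top concentration of 1.0 µM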
Experimental: as §1, §2
For the Arrestin assays, PathHunter cell lines (Discoverx Inc.) were expanded from freezer stocks, and seeded in a total volume of 20 μL into white walled, 384-well microplates and incubated at 37 C for the appropriate time prior to testing. For agonist determination, cells were incubated with sample to induce response. […] The microplates were read following signal generation with a PerkinElmer Envision™ instrument for chemiluminescent signal detection.
The compound activity was analyzed using a CBIS data analysis suite (ChemInnovation, CA). For agonist mode assays, percentage activity was calculated using the following formula:
% Activity=100%×(mean RLU of test sample−mean RLU of vehicle control)/(mean MAX control ligand−mean RLU of vehicle control).

[3] = target: T1, CLR/RAMP1 receptor; assay: CLR/RAMP1 cAMP assay, antagonist mode (CGRP-stimulated); details: for receptor selectivity of antagonists, in words: CLR/RAMP1 versus CLR/RAMP2; for CLR/RAMP1 Max Activity % of positive control (antagonist): antagonist mode
Experimental: A cell line carrying the recombinant CLR/RAMP1, CLR/RAMP2, or a CLR/RAMP3 receptor was employed in the assay. […] The CLR/RAMP1 CAMP, CLR/RAMP2 arrestin, and CLR/RAMP3 CAMP assays (DiscoveRx, Fremont, Calif.) were used.
For the analysis of antagonistic activity, synthetic analogs were pre-incubated with the cells before adding the reference ligand at its EC80. […] For the determination of antagonistic activity, cells were pre-incubated with sample followed by agonist challenge at the EC80 concentration. […] After appropriate compound incubation, assay signal was generated through incubation with 20 μL cAMP XS+ED/CL lysis cocktail for one hour followed by incubation with 20 μL cAMP XS+EA reagent for three hours at room temperature. Microplates were read following signal generation with a PerkinElmer Envision™ instrument for chemiluminescent signal detection.
For the antagonistic activity assay, percentage inhibition is calculated using the following formula: % Inhibition=100%×(1−(mean RLU of test sample−mean RLU of vehicle control)/(mean RLU of EC80 control−mean RLU of vehicle control)).

[4] = target: T2, CLR/RAMP2 receptor; assay: CLR/RAMP2 arrestin assay, antagonist mode (ADM-stimulated)
Experimental: A cell line carrying the recombinant CLR/RAMP1, CLR/RAMP2, or a CLR/RAMP3 receptor was employed in the assay. Peptide agonist activities were tested, in duplicate, at 10 different concentrations, starting with 1.0 μM and serially diluted 3-fold, in DMSO. […] The CLR/RAMP1 CAMP, CLR/RAMP2 arrestin, and CLR/RAMP3 CAMP assays (DiscoveRx, Fremont, Calif.) were used.
For the analysis of antagonistic activity, synthetic analogs were pre-incubated with the cells before adding the reference ligand at its EC80. […] For antagonistic activity determination, cells were pre-incubated with antagonist followed by agonist challenge at the EC80 concentration. […] Then, 5 μL of 6× EC80 agonist in assay buffer was added to the cells and incubated at 37 C or room temperature for 90 or 180 minutes.
The microplates were read following signal generation with a PerkinElmer Envision™ instrument for chemiluminescent signal detection.
% Activity=100%×(mean RLU of test sample−mean RLU of vehicle control)/(mean MAX control ligand−mean RLU of vehicle control). For antagonistic activity assays, percentage inhibition was calculated using the following formula: % Inhibition=100%×(1−(mean RLU of test sample−mean RLU of vehicle control)/(mean RLU of EC80 control−mean RLU of vehicle control)).

T1 sequence (Q16602 23-461): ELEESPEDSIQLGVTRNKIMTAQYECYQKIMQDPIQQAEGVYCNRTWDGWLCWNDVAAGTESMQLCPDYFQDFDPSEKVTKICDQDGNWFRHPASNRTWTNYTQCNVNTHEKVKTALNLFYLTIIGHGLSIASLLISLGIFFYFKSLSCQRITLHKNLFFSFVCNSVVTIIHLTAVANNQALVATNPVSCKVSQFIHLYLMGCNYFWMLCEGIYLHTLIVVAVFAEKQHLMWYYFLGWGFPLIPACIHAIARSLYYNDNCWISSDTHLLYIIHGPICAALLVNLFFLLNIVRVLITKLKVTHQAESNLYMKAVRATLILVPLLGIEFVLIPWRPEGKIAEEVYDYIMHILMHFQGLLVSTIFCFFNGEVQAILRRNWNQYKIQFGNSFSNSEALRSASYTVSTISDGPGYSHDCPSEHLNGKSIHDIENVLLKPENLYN
T1 sequence (O60894 27-148): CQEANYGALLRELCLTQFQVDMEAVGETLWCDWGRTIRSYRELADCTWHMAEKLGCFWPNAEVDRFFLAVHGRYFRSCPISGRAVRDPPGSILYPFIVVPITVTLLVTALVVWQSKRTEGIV
T2 sequence (Q16602 23-461): as the sequence (Q16602 23-461) above
T2 sequence (O60895 43-175): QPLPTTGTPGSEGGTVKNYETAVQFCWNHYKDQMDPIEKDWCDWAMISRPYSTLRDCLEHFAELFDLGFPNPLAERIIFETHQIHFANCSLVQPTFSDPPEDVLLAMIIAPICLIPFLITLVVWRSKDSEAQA

Row | Compound | CLR/RAMP1 Max Activity % of positive control [1] | CLR/RAMP2 Max Activity % of positive control [2] | other results
1 | CSCC[C@H](NC(=O)CNC(=O)CNC(=O)[C@H](CO)NC(=O)[C@H](CCCNC(=N)N)NC(=O)[C@H](CO)NC(=O)[C@H](CC(C)C)NC(=O)[C@H](CC(C)C)NC(=O)CNC(=O)[C@H](C)NC(=O)[C@H](CC(C)C)NC(=O)[C@H](CCCNC(=N)N)NC(=O)[C@H](Cc1c[nH]cn1)NC(=O)[C@@H](NC(=O)[C@@H](NC(=O)[C@@H]1CSSC[C@H](NC(=O)[C@H](C)N)C(=O)N[C@@H](CC(N)=O)C(=O)N[C@@H]([C@@H](C)O)C(=O)N[C@@H](C)C(=O)N[C@@H]([C@@H](C)O)C(=O)N1)C(C)C)[C@@H](C)O)C(=O)N[C@H](C(=O)N[C@@H](CCCCN)C(=O)N[C@@H](CO)C(=O)N[C@@H](CC(N)=O)C(=O)N[C@@H](Cc1ccccc1)C(=O)N[C@H](C(=O)N1CCC[C@H]1C(=O)N[C@H](C(=O)N[C@@H](CC(N)=O)C(=O)N[C@H](C(=O)NCC(=O)N[C@@H](CO)C(=O)N[C@@H](CCCCN)C(=O)N[C@@H](C)C(=O)N[C@@H](Cc1ccccc1)C(N)=O)C(C)C)[C@@H](C)O)C(C)C)C(C)C [SEQ ID NO: 143, reference compound] | 103 % of positive control |  | 
2 | Ace-FGCRFGTCTVQKLAHQIYQFTDKDKDNVAPRSKISPQGY-NH2 [SEQ ID NO: 53, reference compound] | 69 % of positive control | 102 % of positive control | agonistic potency for CLR/RAMP1 and/or CLR/RAMP2 receptors, in words ([1]; CLR/RAMP1 and/or CLR/RAMP2): low potency ligands
3 | Ace-KRPPGFSPFR-miniPEG-K(Pal)VQKLAHQIYQFTDKDVAPRSKISPQGY-NH2 [SEQ ID NO: 149] |  |  | receptor selectivity of antagonists, in words [3]: pan-specific; CLR/RAMP1 Max Activity % of positive control (antagonist) [3]: 101 % of positive control; CLR/RAMP2 Max Activity % of positive control (antagonist) [4]: 99 % of positive control
4 | Ace-NFVPTNVGPFAF-NH2 [SEQ ID NO: 144] |  |  | antagonistic activity toward CLR/RAMP1 and/or CLR/RAMP2, in words ([3]; CLR/RAMP1 and/or CLR/RAMP2): minimal antagonizing activities; CLR/RAMP1 Max Activity % of positive control (antagonist) [3]: 98 % of positive control; CLR/RAMP2 Max Activity % of positive control (antagonist) [4]: 0 % of positive control
5 | Ace-PEG3-K(Hexadecanoyl-PEG3-isoGlu)GCRFGTCTVQKLAHQIYQFTDKDKDNVAPRSKISPQGY-NH2 [SEQ ID NO: 154] | 83 % of positive control | 112 % of positive control | 
6 | Ace-PEG3-K(Hexadecanoyl-isoGlu)GCRFGTCTVQKLAHQIYQFTDKDKDNVAPRSKISPQGY-NH2 [SEQ ID NO: 151] | 85 % of positive control | 134 % of positive control | 
7 | Ace-PEG3-K(Hexadecanoyl-isoGlu-PEG3)GCRFGTCTVQKLAHQIYQFTDKDKDNVAPRSKISPQGY-NH2 [SEQ ID NO: 152] | 80 % of positive control | 132 % of positive control | 
8 | Ace-PEG3-K(Hexadecanoyl-isoGlu-PEG3-PEG3)GCRFGTCTVQKLAHQIYQFTDKDKDNVAPRSKISPQGY-NH2 [SEQ ID NO: 153] | 78 % of positive control | 108 % of positive control | 
9 | Ace-PEG3-K([19-carboxy-nonadecanoyl]-PEG3-isoGlu)GCRFGTCTVQKLAHQIYQFTDKDKDNVAPRSKISPQGY-NH2 [SEQ ID NO: 156] | 88 % of positive control | 91 % of positive control | 
10 | Ace-PEG3-K([19-carboxy-nonadecanoyl]-isoGlu)GCRFGTCTVQKLAHQIYQFTDKDKDNVAPRSKISPQGY-NH2 [SEQ ID NO: 155] | 81 % of positive control | 95 % of positive control | 
11 | Ace-PEG3-K([19-carboxy-nonadecanoyl]-isoGlu-PEG3)GCRFGTCTVQKLAHQIYQFTDKDVAPRSKISPQGY-NH2 [SEQ ID NO: 159] | 90 % of positive control | 60 % of positive control | 
12 | Ace-PEG3-K([19-carboxy-nonadecanoyl]-isoGlu-Peg3-Peg3)GCRFGTCTVQKLAHQIYQFTDKDKDNVAPRSKISPQGY-NH2 [SEQ ID NO: 157] | 100 % of positive control | 95 % of positive control | 
13 | Ace-PEG12-PEG12-K([19-carboxy-nonadecanoyl]-isoGlu-PEG3)GCRFGTCTVQKLAHQIYQFTDKDKDNVAPRSKISPQGY-NH2 [SEQ ID NO: 150] | 94 % of positive control | 60 % of positive control | 
14 | Ace-RPKPQQFFGLM-miniPEG-K(PAL)GCRFGTCTVQKLAHQIYQFTDKDSAPVDPSSPHSY-NH2 [SEQ ID NO: 147] | 109 % of positive control | 90 % of positive control | 
15 | Ace-Y(D-Ala)GF(D-Leu)-miniPEG-K(Pal)VQKLSAPVDPSSPHSY-NH2 [SEQ ID NO: 145] |  |  | receptor selectivity of antagonists, in words [3]: CLR/RAMP1-selective; CLR/RAMP1 Max Activity % of positive control (antagonist) [3]: 99 % of positive control; CLR/RAMP2 Max Activity % of positive control (antagonist) [4]: 100 % of positive control
16 | Ace-YGGFLRRIRPKLK-miniPEG-K(Pal)VQKLSAPVDPSSPHSY-NH2 [SEQ ID NO: 146] |  |  | receptor selectivity of antagonists, in words [3]: CLR/RAMP1-selective; CLR/RAMP1 Max Activity % of positive control (antagonist) [3]: 102 % of positive control; CLR/RAMP2 Max Activity % of positive control (antagonist) [4]: 98 % of positive control
17 | Ace-YNWNSFGLRF-miniPEG-K(PAL)VQKLAHQIYQFTDKDVAPRSKISPQGY-NH2 [SEQ ID NO: 148] |  |  | receptor selectivity of antagonists, in words [3]: pan-specific; CLR/RAMP1 Max Activity % of positive control (antagonist) [3]: 100 % of positive control; CLR/RAMP2 Max Activity % of positive control (antagonist) [4]: 97 % of positive control

Row | Compound | CLR/RAMP1 Max Activity % of positive control [1] | CLR/RAMP2 Max Activity % of positive control [2] | other results
18 | AcePEG3--K([17-carboxy-heptadecanoyl]-isoGlu-Peg3-Peg3)GCRFGTCTVQKLAHQIYQFTDKDKDNVAPRSKISPQGY-NH2 [SEQ ID NO: 158] | 95 % of positive control | 113 % of positive control | 
19 | Human β-CGRP [Wild type CGRP-β positive, reference compound] | 100 % of positive control |  | 
20 | Pyr(glu)-LYENKPRRPYIL-miniPEG-K(PAL)GCRFGTCTVQKLAHQIYQFTDKDVAPRSKISPQGY-NH2 [SEQ ID NO: 223] | 102 % of positive control | 70 % of positive control | 
21 | miniPEG-K(PAL)CRFGTCTVQKLAHQIYQFTDKDKDNSAPVDPSSPHSY-NH2 [SEQ ID NO: 43] | 39 % of positive control | 30 % of positive control | 
22 | miniPEG-K(PAL)GCRFGTC(D-Thr)VQKLAHQIYQFTDKDVAPRSKISPQGY-NH2 [SEQ ID NO: 210] | 77 % of positive control | 47 % of positive control | receptor selectivity of agonists, in words [2]: CLR/RAMP2-selective
23 | miniPEG-K(PAL)GCRFGTCT(D-Val)QKLAHQIYQFTDKDVAPRSKISPQGY-NH2 [SEQ ID NO: 211] | 91 % of positive control | 22 % of positive control | receptor selectivity of agonists, in words [2]: CLR/RAMP2-selective
24 | miniPEG-K(PAL)GCRFGTCTVQKLAHQIYQFTDKDKDNVAPRSKSSPHSY-NH2 [SEQ ID NO: 61] | 70 % of positive control | 92 % of positive control | 
25 | miniPEG-K(PAL)GCRFGTCTVQKLAHQIYQFTDKDKDNVAPVDPSSPHSY-NH2 [SEQ ID NO: 50] | 65 % of positive control | 87 % of positive control | 
26 | miniPEG-K(PAL)GCRFGTCTVQKLAHQIYQFTDKDKDNVDPSSPHSY-NH2 [SEQ ID NO: 94] | 67 % of positive control | 82 % of positive control | receptor selectivity of agonists, in words [2]: CLR/RAMP2-selective
27 | miniPEG-K(PAL)GCRFGTCTVQKLAHQIYQFTDKDKDSAPVDPSSPHSY-NH2 [SEQ ID NO: 46] | 60 % of positive control | 104 % of positive control | 
28 | miniPEG-K(PAL)GCRFGTCTVQKLAHQIYQFTDKDKQDSAPVDPSSPHSY-NH2 [SEQ ID NO: 51] | 65 % of positive control | 107 % of positive control | 
29 | miniPEG-K(PAL)GCRFGTCTVQKLAHQIYQFTDKDKSAPVDPSSPHSY-NH2 [SEQ ID NO: 47] | 85 % of positive control | 64 % of positive control | 
30 | miniPEG-K(PAL)GCRFGTCTVQKLAHQIYQFTDKDVAPR(D-Ser)KISPQGY-NH2 [SEQ ID NO: 213] | 115 % of positive control | 107 % of positive control | 
31 | miniPEG-K(PAL)GCRFGTCTVQKLAHQIYQFTDKDVAPRSKISP(D-Gln)GY-NH2 [SEQ ID NO: 214] | 112 % of positive control | 99 % of positive control | receptor selectivity of agonists, in words [2]: CLR/RAMP2-selective
32 | miniPEG-K(PAL)GCRFGTCTVQKLAHQIYQFTDKGRQDSAPVDPSSPHSY-NH2 [SEQ ID NO: 68] |  | 70 % of positive control | 
33 | miniPEG-K(PAL)TKKTLRTGCRFGTCTVQKLAHQIYQFTDKDKDNVAPRSKISPQGY-NH2 [SEQ ID NO: 70] | 69 % of positive control | 68 % of positive control | 
34 | miniPEG-TK(Pal)KTLRTGCRFGTCTVQKLAHQIYQFTDKDKDNVAPVDPSSPHSY-NH2 [SEQ ID NO: 42] | 56 % of positive control | 76 % of positive control | 
